Experimental data reported in patent US20060199849A1, “Solid lercanidipine free base” (Recordati Ireland Limited, priority 2005, published 2006).
Counter-ions that a name gives are not always drawn.

Experiment: Comparison of physical properties: solubility in esters, ketones, ethers
Assay type: physicochemical
Details: organic solvents: esters
Description: The following is a comparative example, comparing substantially pure lercanidipine free base prepared as described in example 1 (a to d) with crude free base prepared by the method of U.S. Pat. No. 4,705,797 and lercanidipine hydrochloride. Crude free base was prepared as described below. Lercanidipine hydrochloride was obtained from Recordati S.p.A., Milan, Italy.

Row | Solubility in esters, ketones, ethers (hydrochloride) | Solubility in esters, ketones, ethers | SMILES
1 | insoluble | – | COC(=O)C1=C(C)NC(C)=C(C(=O)OC(C)(C)CN(C)CCC(c2ccccc2)c2ccccc2)C1c1cccc([N+](=O)[O-])c1 (centres unmarked) [Lercanidipine Hydrochloride, lercanidipine hydrochloride]
2 | – | Very soluble | COC(=O)C1=C(C)NC(C)=C(C(=O)OC(C)(C)CN(C)CCC(c2ccccc2)c2ccccc2)C1c1cccc([N+](=O)[O-])c1 (centres unmarked) [Crude Free Base, methyl 1,1,N-trimethyl-N-(3,3-diphenylpropyl)-2-aminoethyl 1,4-dihydro-2,6-dimethyl-4-(3-nitrophenyl)pyridine-3,5-dicarboxylate]
